The supplement of paper PMC10627819

Assays:
[1] = tested on: B. subtilis 168; test: fitness (endpoint OD595 vs no drug) (fraction); higher = more growth
Summary of the method: (§1)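 Volumes were 30 µl per well, or 55 µl for S. pneumoniae, in 384-well plates inoculated at OD595 0.01. Media were TSB, LB Lennox or CY at 37 °C, and OD595 was read every 30 min for 14 h with first-reading background subtraction. Fitness is the ratio of optical density at stationary-phase entry to the robust mean of no-drug controls. That ratio is capped at 1.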

[2] = tested on: S. aureus DSM 20231; test: as above
Summary of the method: as §1

[3] = tested on: S. aureus Newman; test: as above
Summary of the method: as §1

[4] = tested on: S. pneumoniae D39V; test: as above
Summary of the method: as §1

[5] = tested on: B. subtilis 168; test: Bliss interaction score (quartile over a dose matrix) (fitness difference); higher = more antagonism (negative = synergy)
Summary of the method: (§2)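 Fitness was defined as normalised growth: OD595 at the start of stationary phase divided by the plate's robust no-drug mean and capped at 1. Single-drug fitness was inferred from combination measurements. The Bliss score is observed fitness minus the product of the single-drug values, summarised by quartiles across technical, biological and donor/recipient replicates.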

[6] = tested on: S. aureus DSM 20231; test: as above
Summary of the method: as §2

[7] = tested on: S. aureus Newman; test: as above
Summary of the method: as §2

[8] = tested on: S. pneumoniae D39V; test: as above
Summary of the method: as §2
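For Bliss interaction score (quartile over a dose matrix) in this document: first quartile when negative (synergy) and third quartile when positive (antagonism).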

CO/N=C(\C(=O)N[C@@H]1C(=O)N2C(C(=O)O)=C(COC(C)=O)CS[C@H]12)c1csc(N)n1 [Cefotaxime] + COc1ccc(C[C@H](N)C(=O)N[C@H]2[C@@H](O)[C@H](n3cnc4c(N(C)C)ncnc43)O[C@@H]2CO)cc1 [Puromycin]
fitness, one replicate
Conditions	partner 0.39 µg/mL	partner 0.78 µg/mL	partner 1.56 µg/mL	partner 3.12 µg/mL	partner 6.24 µg/mL
[1], first compound 0.00775 µg/mL	0.887	0.903	0.816	–	–
[1], first compound 0.0155 µg/mL	0.71	0.726	0.668	–	–
[1], first compound 0.031 µg/mL	0.558	0.574	0.616	–	–
[2], first compound 0.039 µg/mL	0.811	0.79	0.806	–	–
[2], first compound 0.078 µg/mL	–	–	–	0.895	0.653
[2], first compound 0.156 µg/mL	–	–	–	0.841	0.646
[2], first compound 0.312 µg/mL	–	–	–	0.808	0.417
[3], first compound 0.039 µg/mL	0.734	0.771	0.719	–	–
[3], first compound 0.625 µg/mL	0.0309	0.0612	0.0601	–	–
[3], first compound 1.25 µg/mL	0.0598	0.0843	0.0641	–	–
[3], first compound 2.5 µg/mL	0.0418	0.0601	0.0425	–	–

fitness
Conditions	partner 0.39 µg/mL	partner 0.78 µg/mL	partner 1 µg/mL	partner 1.56 µg/mL	partner 2 µg/mL	partner 4 µg/mL
[1], first compound 0.5 µg/mL	0.267	0.284	–	0.312	–	–
[1], first compound 1 µg/mL	0.144	0.147	–	0.169	–	–
[1], first compound 2 µg/mL	0.113	0.125	–	0.147	–	–
[2], first compound 0.078 µg/mL	0.748	0.774	–	0.833	–	–
[2], first compound 0.156 µg/mL	0.72	0.781	–	0.796	–	–
[2], first compound 0.312 µg/mL	0.644	0.689	–	0.712	–	–
[3], first compound 0.078 µg/mL	0.739	0.729	–	0.782	–	–
[3], first compound 0.156 µg/mL	0.633	0.698	–	0.702	–	–
[3], first compound 0.312 µg/mL	0.408	0.456	–	0.437	–	–
[4], first compound 0.0018 µg/mL	–	–	0.973	–	≥ 1	0.885
[4], first compound 0.0035 µg/mL	–	–	0.931	–	0.975	0.766
[4], first compound 0.007 µg/mL	–	–	0.93	–	0.919	0.662

Conditions	Bliss interaction score
[5]	0.104
[6]	0.0471
[7]	0.0762
[8]	0.11

C[C@@H]1O[C@@H]1P(=O)(O)O [Fosfomycin] + CCN(CC)CCOC(=O)c1ccc(N)cc1 [Procaine]
fitness
Conditions	partner 85.5 µg/mL	partner 171 µg/mL	partner 342 µg/mL
[1], first compound 1.562 µg/mL	0.711	0.704	0.646
[1], first compound 3.124 µg/mL	0.592	0.554	0.576
[1], first compound 6.248 µg/mL	0.377	0.372	0.322
[2], first compound 0.781 µg/mL	0.736	0.812	0.833
[2], first compound 1.562 µg/mL	0.603	0.64	0.634
[2], first compound 3.124 µg/mL	0.427	0.513	0.489
[3], first compound 0.781 µg/mL	0.576	0.54	0.562
[3], first compound 1.562 µg/mL	0.535	0.553	0.516
[3], first compound 3.124 µg/mL	0.198	0.197	0.162
[4], first compound 1.25 µg/mL	0.979	0.97	0.924
[4], first compound 2.5 µg/mL	0.951	0.921	0.905
[4], first compound 5 µg/mL	0.81	0.827	0.813

Conditions	Bliss interaction score
[5]	-0.0557
[6]	-0.0626
[7]	0.0813
[8]	-0.029

CO/N=C(\C(=O)N[C@@H]1C(=O)N2C(C(=O)O)=C(COC(C)=O)CS[C@H]12)c1csc(N)n1 [Cefotaxime] + Cc1cc(NS(=O)(=O)c2ccc(N)cc2)no1 [Sulfamethoxazol]
fitness, one replicate
Conditions	partner 0.5 µg/mL	partner 1 µg/mL	partner 2 µg/mL	partner 4 µg/mL	partner 8 µg/mL
[1], first compound 0.00775 µg/mL	–	0.802	0.77	0.757	–
[1], first compound 0.0155 µg/mL	–	0.719	0.638	0.6	–
[1], first compound 0.031 µg/mL	–	0.552	0.513	0.475	–
[1], first compound 0.0625 µg/mL	0.664	0.494	0.438	–	–
[1], first compound 0.125 µg/mL	0.395	0.402	0.275	–	–
[1], first compound 0.25 µg/mL	0.325	0.0239	0.201	–	–
[2], first compound 0.039 µg/mL	–	0.724	0.758	0.714	–
[3], first compound 0.039 µg/mL	–	0.86	–	–	0.922
[3], first compound 0.078 µg/mL	–	–	–	–	0.877
[3], first compound 0.156 µg/mL	–	–	–	–	0.823
[3], first compound 0.312 µg/mL	–	–	–	–	0.588
[3], first compound 0.625 µg/mL	–	0.0508	0.0123	0.0053	–
[3], first compound 1.25 µg/mL	–	0.0193	0.0269	0.0043	–
[3], first compound 2.5 µg/mL	–	0.0252	0.0046	0.0076	–

fitness
Conditions	partner 1 µg/mL	partner 2 µg/mL	partner 4 µg/mL
[1], first compound 0.5 µg/mL	0.221	0.187	0.211
[1], first compound 1 µg/mL	0.115	0.0739	0.0877
[1], first compound 2 µg/mL	0.11	0.0944	0.0802
[2], first compound 0.078 µg/mL	0.737	0.735	0.74
[2], first compound 0.156 µg/mL	0.681	0.686	0.687
[2], first compound 0.312 µg/mL	0.619	0.605	0.631
[3], first compound 0.039 µg/mL	–	0.944	0.886
[3], first compound 0.078 µg/mL	0.776	0.821	0.833
[3], first compound 0.156 µg/mL	0.687	0.752	0.748
[3], first compound 0.312 µg/mL	0.408	0.535	0.547
[4], first compound 0.0018 µg/mL	0.945	0.969	0.913
[4], first compound 0.0035 µg/mL	0.984	0.955	0.943
[4], first compound 0.007 µg/mL	0.894	0.91	0.888

Conditions	Bliss interaction score
[5]	0.054
[6]	0.046
[7]	0.0672
[8]	0.0301

COc1cccc2c1C(=O)c1c(O)c3c(c(O)c1C2=O)C[C@@](O)(C(=O)CO)C[C@@H]3O[C@H]1C[C@H](N)[C@H](O)[C@H](C)O1 [Doxorubicin] + CC1=C\[C@@H](O)CC(=O)Cc2nc(co2)C(=O)N2CCC=C2C(=O)O[C@H](C(C)C)[C@H](C)/C=C/C(=O)NC\C=C\1 [Virginiamycin M1]
fitness
Conditions	first compound 0.25 µg/mL	first compound 0.5 µg/mL	first compound 0.625 µg/mL	first compound 1 µg/mL	first compound 1.25 µg/mL	first compound 2.5 µg/mL
[1], partner 0.0625 µg/mL	–	–	0.975	–	0.901	0.653
[1], partner 0.125 µg/mL	–	–	0.939	–	0.904	0.639
[1], partner 0.25 µg/mL	–	–	0.96	–	0.911	0.7
[2], partner 0.0625 µg/mL	–	–	0.874	–	0.872	0.779
[2], partner 0.125 µg/mL	–	–	0.944	–	0.903	0.82
[2], partner 0.25 µg/mL	–	–	0.873	–	0.862	0.802
[3], partner 0.0625 µg/mL	–	–	0.76	–	0.766	0.768
[3], partner 0.125 µg/mL	–	–	0.795	–	0.802	0.756
[3], partner 0.25 µg/mL	–	–	0.788	–	0.784	0.746
[4], partner 0.5 µg/mL	0.964	0.961	–	0.969	–	–
[4], partner 1 µg/mL	0.997	≥ 1	–	0.951	–	–
[4], partner 2 µg/mL	0.92	0.9	–	0.898	–	–

fitness, one replicate
Conditions	first compound 0.25 µg/mL	first compound 0.5 µg/mL	first compound 0.625 µg/mL	first compound 1 µg/mL	first compound 1.25 µg/mL	first compound 2.5 µg/mL
[2], partner 0.5 µg/mL	–	–	0.873	–	0.803	0.706
[2], partner 1 µg/mL	–	–	0.769	–	0.708	0.761
[3], partner 0.5 µg/mL	–	–	0.81	–	0.809	0.703
[3], partner 1 µg/mL	–	–	0.924	–	0.871	0.793
[3], partner 2 µg/mL	–	–	0.837	–	0.696	0.664
[4], partner 0.15 µg/mL	0.86	0.865	–	0.911	–	–
[4], partner 0.3 µg/mL	0.823	0.836	–	0.888	–	–

Conditions	Bliss interaction score
[5]	0.0827
[6]	-0.0467
[7]	-0.0655
[8]	0.0614
